Source: the supplement of paper PMC10307832

Columns and labels:
Experiment in all cases: relative viability (nuclei count vs DMSO), 5 days (fraction); higher = more cells survive
NCI-H1755 = test system: NCI-H1755
How it was run: (§1)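 After 5 days of treatment, lung cancer cells in 1536-well plates were fixed and stained in a single step (final 0.05% Triton X-100, 1% formaldehyde, 1 ug/ml Hoechst) and their nuclei counted on 4× images. Treatment had been applied by pin tool the day after seeding as one drug alone or as a fixed anchor-drug dose with five library-drug doses (not always all listed) in √10 steps. Relative viability is the nuclei count of treated wells divided by that of vehicle wells, and values are medians of duplicate plates.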

COR-L 105 = test system: COR-L 105
How it was run: as §1

A-427 = test system: A-427
How it was run: as §1

NCI-H1395 = test system: NCI-H1395
How it was run: as §1

NCI-H2009 = test system: NCI-H2009
How it was run: as §1

SK-LU-1 = test system: SK-LU-1
How it was run: as §1

LCLC-103H = test system: LCLC-103H
How it was run: as §1

HARA = test system: HARA
How it was run: as §1

EMC-BAC-2 = test system: EMC-BAC-2
How it was run: as §1

NCI-H727 = test system: NCI-H727
How it was run: as §1

HOP-62 = test system: HOP-62
How it was run: as §1

Nc1ccn([C@@H]2O[C@H](CO)[C@@H](O)[C@@H]2O)c(=O)n1 [Cytarabine] + CC(=O)c1c(C)c2cnc(Nc3ccc(N4CCNCC4)cn3)nc2n(C2CCCC2)c1=O [Palbociclib] (partner 0.5 µM)
relative viability (NCI-H1755; first compound 0.005 µM): 0.428
relative viability (NCI-H1755; first compound 0.01581 µM): 0.422
relative viability (NCI-H1755; first compound 0.05 µM): 0.434
relative viability (NCI-H1755; first compound 0.1581 µM): 0.377
relative viability (NCI-H1755; first compound 0.5 µM): 0.414
relative viability (COR-L 105; first compound 0.005 µM): 0.37
relative viability (COR-L 105; first compound 0.01581 µM): 0.37
relative viability (COR-L 105; first compound 0.05 µM): 0.27
relative viability (COR-L 105; first compound 0.1581 µM): 0.351
relative viability (COR-L 105; first compound 0.5 µM): 0.324
relative viability (A-427; first compound 0.005 µM): 0.437
relative viability (A-427; first compound 0.01581 µM): 0.474
relative viability (A-427; first compound 0.05 µM): 0.363
relative viability (A-427; first compound 0.1581 µM): 0.281
relative viability (A-427; first compound 0.5 µM): 0.273
relative viability (NCI-H1395; first compound 0.005 µM): 0.599
relative viability (NCI-H1395; first compound 0.01581 µM): 0.594
relative viability (NCI-H1395; first compound 0.05 µM): 0.492
relative viability (NCI-H1395; first compound 0.1581 µM): 0.406
relative viability (NCI-H1395; first compound 0.5 µM): 0.345
relative viability (NCI-H2009; first compound 0.005 µM): 0.211
relative viability (NCI-H2009; first compound 0.01581 µM): 0.192
relative viability (NCI-H2009; first compound 0.05 µM): 0.187
relative viability (NCI-H2009; first compound 0.1581 µM): 0.154
relative viability (NCI-H2009; first compound 0.5 µM): 0.125
relative viability (SK-LU-1; first compound 0.005 µM): 0.371
relative viability (SK-LU-1; first compound 0.01581 µM): 0.419
relative viability (SK-LU-1; first compound 0.05 µM): 0.271
relative viability (SK-LU-1; first compound 0.1581 µM): 0.307
relative viability (SK-LU-1; first compound 0.5 µM): 0.284
relative viability (LCLC-103H; first compound 0.005 µM): 0.488
relative viability (LCLC-103H; first compound 0.01581 µM): 0.429
relative viability (LCLC-103H; first compound 0.05 µM): 0.498
relative viability (LCLC-103H; first compound 0.1581 µM): 0.439
relative viability (LCLC-103H; first compound 0.5 µM): 0.492
relative viability (HARA; first compound 0.005 µM): 0.291
relative viability (HARA; first compound 0.01581 µM): 0.212
relative viability (HARA; first compound 0.05 µM): 0.221
relative viability (HARA; first compound 0.1581 µM): 0.158
relative viability (HARA; first compound 0.5 µM): 0.163
relative viability (EMC-BAC-2; first compound 0.005 µM): 0.51
relative viability (EMC-BAC-2; first compound 0.01581 µM): 0.501
relative viability (EMC-BAC-2; first compound 0.05 µM): 0.463
relative viability (EMC-BAC-2; first compound 0.1581 µM): 0.353
relative viability (EMC-BAC-2; first compound 0.5 µM): 0.303
relative viability (NCI-H727; first compound 0.005 µM): 0.613
relative viability (NCI-H727; first compound 0.01581 µM): 0.556
relative viability (NCI-H727; first compound 0.05 µM): 0.599
relative viability (NCI-H727; first compound 0.1581 µM): 0.554
relative viability (NCI-H727; first compound 0.5 µM): 0.505
relative viability (HOP-62; first compound 0.005 µM): 0.395
relative viability (HOP-62; first compound 0.01581 µM): 0.297
relative viability (HOP-62; first compound 0.05 µM): 0.234
relative viability (HOP-62; first compound 0.1581 µM): 0.139
relative viability (HOP-62; first compound 0.5 µM): 0.155
